From the NIST ThermoML archive (doi:10.1021/je900615b)
Where “and” joins values, the source holds several entries; their conditions need not be identical. Equal values may be shown once.

Conditions: Liquid, Hot wire method

CCOCC [diethyl ether]
Conditions	thermal conductivity [W/m/K]
234.64 K, 100 kPa	0.1453
234.88 K, 20100 kPa	0.1543
234.9 K, 30300 kPa	0.1565
234.92 K, 20100 kPa	0.1542
235.03 K, 100 kPa	0.1461
235.09 K, 20200 kPa	0.1538
235.1 K, 10100 kPa	0.1496
235.17 K, 5100 kPa	0.1478
235.22 K, 30200 kPa	0.1563
235.4 K, 30400 kPa	0.1559
235.48 K, 10100 kPa	0.1499
235.53 K, 5100 kPa	0.1479
235.89 K, 10100 kPa	0.15
235.93 K, 5100 kPa	0.1477
235.94 K, 100 kPa	0.1456
254.64 K, 20200 kPa	0.1484
254.74 K, 30000 kPa	0.1514
254.75 K, 5200 kPa	0.1408
254.86 K, 30000 kPa	0.1512
254.91 K, 19700 kPa	0.1477
254.95 K, 100 kPa	0.1386
254.98 K, 10100 kPa	0.1427
254.99 K, 4900 kPa	0.1411
255.26 K, 100 kPa	0.1386
255.28 K, 29900 kPa	0.1512
255.34 K, 20200 kPa	0.1475
255.37 K, 5100 kPa	0.1407
255.38 K, 10200 kPa	0.1432
255.69 K, 10000 kPa	0.1427
255.7 K, 100 kPa	0.1386
274.69 K, 100 kPa	0.1315
274.7 K, 20100 kPa	0.1409
274.71 K, 5000 kPa	0.1338
274.71 K, 10000 kPa	0.1363
274.92 K, 30000 kPa	0.1447
274.93 K, 20000 kPa	0.1409
274.96 K, 100 kPa	0.1319
274.97 K, 10000 kPa	0.1362
275.21 K, 30000 kPa	0.145
275.37 K, 100 kPa	0.1317
275.38 K, 5000 kPa	0.1339
275.56 K, 10100 kPa	0.1364
275.64 K, 30000 kPa	0.145
275.7 K, 20000 kPa	0.1407
275.79 K, 5000 kPa	0.134
294.61 K, 20200 kPa	0.1366
294.79 K, 10100 kPa	0.1311
294.81 K, 5100 kPa	0.128
294.83 K, 29900 kPa	0.1419
294.93 K, 20000 kPa	0.1366
295.04 K, 5000 kPa	0.128
295.06 K, 10100 kPa	0.1309
295.08 K, 29700 kPa	0.1416
295.25 K, 20000 kPa	0.1365
295.26 K, 10000 kPa	0.1308
295.31 K, 100 kPa	0.1248
295.43 K, 5100 kPa	0.1277
295.53 K, 29900 kPa	0.1419
295.6 K, 100 kPa	0.1252
296.02 K, 100 kPa	0.125
314.33 K, 5100 kPa	0.1201
314.44 K, 5300 kPa	0.1205
314.55 K, 30100 kPa	0.1357
314.6 K, 10000 kPa	0.1231
314.95 K, 10100 kPa	0.1236
314.95 K, 20100 kPa	0.1291
314.95 K, 30100 kPa	0.1361
315.01 K, 200 kPa	0.1187
315.13 K, 200 kPa	0.1182
315.21 K, 5200 kPa	0.1202
315.39 K, 30100 kPa	0.1356
315.5 K, 200 kPa	0.1182
315.52 K, 10100 kPa	0.1232
315.56 K, 20200 kPa	0.1289
315.91 K, 20100 kPa	0.1287
335.02 K, 5100 kPa	0.1127
335.13 K, 20300 kPa	0.1222
335.21 K, 5100 kPa	0.1127
335.28 K, 200 kPa	0.1093
335.3 K, 30200 kPa	0.1275
335.33 K, 10200 kPa	0.1159
335.33 K, 19900 kPa	0.1217
335.63 K, 5200 kPa	0.1126
335.71 K, 20400 kPa	0.1224
335.72 K, 10100 kPa	0.1162
335.72 K, 30000 kPa	0.1271
335.78 K, 200 kPa	0.1091
336.08 K, 200 kPa	0.1092
336.13 K, 30200 kPa	0.1269
336.17 K, 10100 kPa	0.1159
354.59 K, 30000 kPa	0.1208
354.75 K, 5000 kPa	0.1044
355.05 K, 10000 kPa	0.1084
355.05 K, 30000 kPa	0.1206
355.08 K, 500 kPa	0.1001
355.18 K, 20000 kPa	0.115
355.32 K, 10100 kPa	0.1082
355.37 K, 5000 kPa	0.1048
355.39 K, 30000 kPa	0.1204
355.52 K, 500 kPa	0.1001
355.52 K, 20000 kPa	0.1148
355.74 K, 5000 kPa	0.1045
355.8 K, 10000 kPa	0.1079
355.82 K, 500 kPa	0.1002
356.03 K, 20000 kPa	0.1147
374.62 K, 10000 kPa	0.1004
374.7 K, 5200 kPa	0.0974
374.92 K, 30000 kPa	0.1132
375.01 K, 29700 kPa	0.1131
375.06 K, 10000 kPa	0.1011
375.22 K, 20000 kPa	0.1081
375.25 K, 5100 kPa	0.0973
375.4 K, 5000 kPa	0.0973
375.46 K, 10000 kPa	0.1008
375.51 K, 29800 kPa	0.1135
375.62 K, 20000 kPa	0.1082
375.72 K, 700 kPa	0.0926
376.18 K, 700 kPa	0.0925
376.28 K, 20000 kPa	0.1076
376.8 K, 700 kPa	0.0923

CC(C)OC(C)C [diisopropyl ether]
Conditions	thermal conductivity
235.46 K, 100 kPa	0.1259 W/m/K
235.54 K, 100 kPa	0.1258 W/m/K
236.06 K, 100 kPa	0.1259 W/m/K
236.15 K, 30600 kPa	0.1369 W/m/K
236.25 K, 5000 kPa	0.128 W/m/K
236.29 K, 10100 kPa	0.13 W/m/K
236.33 K, 5000 kPa	0.1275 W/m/K
236.44 K, 20200 kPa	0.1331 W/m/K
236.45 K, 20300 kPa	0.1337 W/m/K
236.53 K, 29900 kPa	0.1364 W/m/K
236.67 K, 5000 kPa	0.1277 W/m/K
236.7 K, 10200 kPa	0.1305 W/m/K
236.8 K, 20300 kPa	0.1337 W/m/K
236.92 K, 30000 kPa	0.1363 W/m/K
237.15 K, 10200 kPa	0.1302 W/m/K
254.4 K, 20400 kPa	0.1276 W/m/K
254.47 K, 30400 kPa	0.1314 W/m/K
254.66 K, 5100 kPa	0.122 W/m/K
254.73 K, 100 kPa	0.1201 W/m/K
254.74 K, 10000 kPa	0.1238 W/m/K
254.76 K, 29500 kPa	0.1312 W/m/K
254.86 K, 10200 kPa	0.1241 W/m/K
254.89 K, 5300 kPa	0.1223 W/m/K
254.9 K, 20100 kPa	0.128 W/m/K
255.08 K, 100 kPa	0.1205 W/m/K
255.13 K, 10100 kPa	0.1236 W/m/K
255.14 K, 5100 kPa	0.1221 W/m/K
255.26 K, 100 kPa	0.1199 W/m/K
255.58 K, 30100 kPa	0.1315 W/m/K
255.61 K, 19900 kPa	0.1285 W/m/K
274.6 K, 30000 kPa	0.1274 W/m/K
274.72 K, 10100 kPa	0.1177 W/m/K
274.86 K, 29900 kPa	0.1269 W/m/K
274.89 K, 20000 kPa	0.122 W/m/K
274.95 K, 5100 kPa	0.1154 W/m/K
275 K, 100 kPa	0.1129 W/m/K
275.02 K, 10000 kPa	0.1178 W/m/K
275.17 K, 30100 kPa	0.1271 W/m/K
275.19 K, 5000 kPa	0.115 W/m/K
275.25 K, 10000 kPa	0.1175 W/m/K
275.3 K, 100 kPa	0.1135 W/m/K
275.51 K, 20100 kPa	0.1218 W/m/K
275.6 K, 5000 kPa	0.1152 W/m/K
275.91 K, 100 kPa	0.1131 W/m/K
276.04 K, 20100 kPa	0.1219 W/m/K
294.58 K, 100 kPa	0.1073 W/m/K
294.64 K, 30100 kPa	0.1197 W/m/K
294.65 K, 10000 kPa	0.1118 W/m/K
294.95 K, 5000 kPa	0.1089 W/m/K
294.98 K, 10000 kPa	0.1115 W/m/K
295.03 K, 100 kPa	0.1071 W/m/K
295.13 K, 20100 kPa	0.1161 W/m/K
295.14 K, 30100 kPa	0.1199 W/m/K
295.27 K, 30000 kPa	0.1198 W/m/K
295.32 K, 10100 kPa	0.1111 W/m/K
295.35 K, 5000 kPa	0.1085 W/m/K
295.6 K, 20100 kPa	0.116 W/m/K
295.7 K, 100 kPa	0.1066 W/m/K
295.82 K, 5000 kPa	0.1087 W/m/K
296.18 K, 20100 kPa	0.1159 W/m/K
314.96 K, 30000 kPa	0.1145 W/m/K
315.03 K, 5000 kPa	0.1027 W/m/K
315.07 K, 20000 kPa	0.1105 W/m/K
315.13 K, 100 kPa	0.0993 W/m/K
315.24 K, 30000 kPa	0.1144 W/m/K
315.26 K, 20000 kPa	0.1099 W/m/K
315.35 K, 10000 kPa	0.105 W/m/K
315.39 K, 5000 kPa	0.1023 W/m/K
315.48 K, 100 kPa	0.0996 W/m/K
315.71 K, 10000 kPa	0.1054 W/m/K
315.73 K, 5100 kPa	0.1027 W/m/K
315.76 K, 20000 kPa	0.1104 W/m/K
315.88 K, 100 kPa	0.0994 W/m/K
315.98 K, 30000 kPa	0.1144 W/m/K
316.26 K, 10000 kPa	0.105 W/m/K
334.99 K, 10100 kPa	0.0998 W/m/K
335.01 K, 5400 kPa	0.0959 W/m/K
335.11 K, 20000 kPa	0.1038 W/m/K
335.23 K, 100 kPa	0.0935 W/m/K
335.29 K, 29900 kPa	0.1093 W/m/K
335.32 K, 10100 kPa	0.0995 W/m/K
335.46 K, 100 kPa	0.0932 W/m/K
335.51 K, 30200 kPa	0.1094 W/m/K
335.68 K, 19700 kPa	0.1043 W/m/K
335.72 K, 30000 kPa	0.1096 W/m/K
335.84 K, 5000 kPa	0.096 W/m/K
335.84 K, 10100 kPa	0.0995 W/m/K
335.94 K, 100 kPa	0.0931 W/m/K
336.31 K, 20100 kPa	0.1042 W/m/K
336.37 K, 5200 kPa	0.0959 W/m/K
354.72 K, 29900 kPa	0.106 W/m/K and 0.1051 W/m/K
354.85 K, 19700 kPa	0.1006 W/m/K
354.97 K, 5000 kPa	0.0913 W/m/K
354.97 K, 19800 kPa	0.1 W/m/K
355.23 K, 10100 kPa	0.0944 W/m/K
355.29 K, 300 kPa	0.0865 W/m/K
355.33 K, 10100 kPa	0.0944 W/m/K
355.45 K, 5000 kPa	0.0916 W/m/K
355.47 K, 20100 kPa	0.1001 W/m/K
355.56 K, 5000 kPa	0.091 W/m/K
355.66 K, 300 kPa	0.0869 W/m/K
355.87 K, 10000 kPa	0.094 W/m/K
356.04 K, 300 kPa	0.0866 W/m/K
356.04 K, 29900 kPa	0.1056 W/m/K
374.75 K, 30000 kPa	0.1021 W/m/K
374.95 K, 29800 kPa	0.1021 W/m/K
375.12 K, 20000 kPa	0.0959 W/m/K
375.24 K, 400 kPa	0.0813 W/m/K
375.25 K, 10000 kPa	0.0893 W/m/K
375.4 K, 5100 kPa	0.0858 W/m/K
375.47 K, 400 kPa	0.0812 W/m/K
375.55 K, 30300 kPa	0.1026 W/m/K
375.57 K, 20000 kPa	0.0957 W/m/K
375.61 K, 10000 kPa	0.0889 W/m/K
375.75 K, 5100 kPa	0.0853 W/m/K
375.87 K, 400 kPa	0.0816 W/m/K
376.05 K, 20000 kPa	0.0955 W/m/K
376.23 K, 10000 kPa	0.089 W/m/K
376.26 K, 5100 kPa	0.0854 W/m/K
